Experimental findings from PubChem BioAssay AID208 (DTP/NCI, 2004) are described below.

Where “and” joins values, the source holds several entries; their conditions need not be identical. Equal entries are not always repeated. Results filed as inconclusive are left out.

The subject of this assay is HT29 intrarenal xenograft, nude mice, tumor weight change. As to the kind of experiment: NCI In Vivo Anticancer Drug Screen. Data for tumor model HT29;CX-1 Human Adenocarcinoma (MER+) (intrarenal inoculation) in NU/NU BALB/C (nude) mice. Particulars: endpoint: mean tumor weight change, higher = larger tumour. On the procedure:
The antitumor activity of compounds was measured in mice bearing transplantable tumors. Survival or tumor size were measured and the results are expressed as the measurement made in the treated group (T) divided by the measurement made in the vehicle treated control group (C). The tumor model used in this assay is HT29;CX-1 Human Adenocarcinoma (MER+) (intrarenal inoculation) in NU/NU BALB/C (nude) mice

The mark [1] stands for this setting: dose: 150.0 mg/kg/injection, schedule: Q04DX004 (sc), vehicle: saline with Tween-80.
Setting [2] is: dose: 300.0 mg/kg/injection, schedule: Q04DX004 (sc), vehicle: saline with Tween-80.
The mark [3] stands for this setting: dose: 600.0 mg/kg/injection, schedule: Q04DX004 (sc), vehicle: saline with Tween-80.
The mark [4] stands for this setting: dose: 1200.0 mg/kg/injection, schedule: Q04DX004 (sc), vehicle: saline with Tween-80.
The mark [5] stands for this setting: dose: 50.0 mg/kg/injection, schedule: Q04DX004 (sc), vehicle: water.

With `NC(=S)N/N=C/c1ccc(O)cn1`, under “dose: 200.0 mg/kg/injection, schedule: Q04DX004 (sc), vehicle: saline with Tween-80”, the T/C was 75 % of control.

On to `CCCCCCCC(=O)OCC(=O)[C@]1(O)Cc2c(O)c3c(c(O)c2[C@@H](OC2CC(N)C(O)C(C)O2)C1)C(=O)c1c(OC)cccc1C3=O` (some centres undefined), for which the T/C is, setting by setting: (dose: 2.0 mg/kg/injection, schedule: Q04DX004 (sc), vehicle: saline) 63 % of control; (dose: 4.0 mg/kg/injection, schedule: Q04DX004 (sc), vehicle: saline) 78 % of control; (dose: 8.0 mg/kg/injection, schedule: Q04DX004 (sc), vehicle: saline) 48 % of control; (dose: 16.0 mg/kg/injection, schedule: Q04DX004 (sc), vehicle: saline) 30 % of control.

Turning to `COc1cc(Cc2nccc3cc(OC)c(OC)cc23)c(C(C)=O)c(OC)c1`, the T/C is, setting by setting: (dose: 20.0 mg/kg/injection, schedule: Q01DX010 (sc), vehicle: saline) 109 % of control; (dose: 80.0 mg/kg/injection, schedule: Q01DX010 (sc), vehicle: saline) 64 % of control.

Consider `NC(=O)CCC(N)C(=O)O` (centres undefined), for which the T/C (dose: 75.0 mg/kg/injection, schedule: Q04DX004 (ip), vehicle: suspension in saline) was 101 % of control; the T/C (dose: 150.0 mg/kg/injection, schedule: Q04DX004 (ip), vehicle: suspension in saline) was 70 % of control; the T/C (dose: 600.0 mg/kg/injection, schedule: Q04DX004 (ip), vehicle: suspension in saline) was 95 % of control; the T/C (dose: 1200.0 mg/kg/injection, schedule: Q04DX004 (ip), vehicle: suspension in saline) was 107 % of control.

Consider `CCOC(=O)C1(c2ccccc2)C(=O)Oc2ccccc21` (centres undefined), for which the T/C is 83 % of control under setting [1], 98 % of control under setting [2], 117 % of control under setting [3] and 80 % of control under setting [4].

As to `N#CC(OC1OC(COC2OC(CO)C(O)C(O)C2O)C(O)C(O)C1O)c1ccccc1` (centres undefined), the T/C (dose: 300.0 mg/kg/injection, schedule: Q04DX004 (sc), vehicle: saline) is 95 % of control; the T/C (dose: 600.0 mg/kg/injection, schedule: Q04DX004 (sc), vehicle: saline) was 96 % of control; the T/C (dose: 1200.0 mg/kg/injection, schedule: Q04DX004 (sc), vehicle: saline) is 88 % of control; the T/C (dose: 2400.0 mg/kg/injection, schedule: Q04DX004 (sc), vehicle: saline) was 94 % of control.

For `Cn1c(=O)[nH]c2nncnc2c1=O`, under “dose: 60.0 mg/kg/injection, schedule: Q04DX004 (sc), vehicle: water”, the T/C is 124 % of control.

In the case of `N=C1CCCS1`, the T/C by setting is: (dose: 12.5 mg/kg/injection, schedule: Q04DX004 (sc), vehicle: saline) 117 % of control; (dose: 25.0 mg/kg/injection, schedule: Q04DX004 (sc), vehicle: saline) 151 % of control; (dose: 50.0 mg/kg/injection, schedule: Q04DX004 (sc), vehicle: saline) 96 % of control; (dose: 100.0 mg/kg/injection, schedule: Q04DX004 (sc), vehicle: saline) 62 % of control.

For the compound `C1CC[N-]CC1.[Cl][Pt+2][Cl].[NH-]C1CC1`, the T/C was 99 % of control (dose: 25.0 mg/kg/injection, schedule: Q04DX004 (sc), vehicle: water) and 46 % of control under setting [5].

For `CCN1C=C/C(=C\C=C/c2cc[n+](CC)c3ccccc23)c2ccccc21`, where the note is “dose: 0.5 mg/kg/injection, schedule: Q01DX010 (sc), vehicle: saline”, the T/C was 229 % of control.

As to `CCC1=C[C@H]2CN(CCc3c([nH]c4ccccc34)[C@@](C(=O)OC)(c3cc4c(cc3OC)N(C)[C@H]3[C@@](O)(C(=O)NC)[C@H](OC(C)=O)[C@]5(CC)C=CCN6CC[C@]43[C@@H]65)C2)C1`, the T/C (dose: 2.0 mg/kg/injection, schedule: Q04DX004 (sc), vehicle: water) is -17 % of control and 8 % of control; the T/C (dose: 4.0 mg/kg/injection, schedule: Q04DX004 (sc), vehicle: water) is -99 % of control.

Take `O=C1C=CC(n2cc(F)c(=O)[nH]c2=O)O1` (centres undefined): the T/C (dose: 37.5 mg/kg/injection, schedule: Q04DX004 (sc), vehicle: suspension in saline) was 87 % of control; the T/C (dose: 75.0 mg/kg/injection, schedule: Q04DX004 (sc), vehicle: suspension in saline) is 88 % of control; the T/C (dose: 150.0 mg/kg/injection, schedule: Q04DX004 (sc), vehicle: suspension in saline) was 47 % of control.

Consider `CCNC=O`, for which the T/C (dose: 150.0 mg/kg/injection, schedule: Q01DX010 (ip), vehicle: suspension in saline) is 82 % of control; the T/C (dose: 300.0 mg/kg/injection, schedule: Q01DX010 (ip), vehicle: suspension in saline) was 42 % of control; the T/C (dose: 600.0 mg/kg/injection, schedule: Q01DX010 (ip), vehicle: suspension in saline) is 39 % of control.

For the compound `O=C1C2CC(Cl)C(SSC3CC4C(=O)N(SC(Cl)(Cl)C(Cl)Cl)C(=O)C4CC3Cl)CC2C(=O)N1SC(Cl)(Cl)C(Cl)Cl` (centres undefined), the T/C runs as follows: (dose: 75.0 mg/kg/injection, schedule: Q04DX004 (ip), vehicle: Klucel (hydroxypropylcellulose) (HPC)) 56 % of control; (dose: 150.0 mg/kg/injection, schedule: Q04DX004 (ip), vehicle: Klucel (hydroxypropylcellulose) (HPC)) 58 % of control; (dose: 300.0 mg/kg/injection, schedule: Q04DX004 (ip), vehicle: Klucel (hydroxypropylcellulose) (HPC)) 39 % of control; (dose: 600.0 mg/kg/injection, schedule: Q04DX004 (ip), vehicle: Klucel (hydroxypropylcellulose) (HPC)) 35 % of control.

For `O=C(C/C(=N\C(=S)Nc1cc(C(F)(F)F)ccc1Cl)NO)N1CCCC1`, the T/C by setting is: (dose: 600.0 mg/kg/injection, schedule: Q04DX003 (sc), vehicle: saline with Tween-80) 114 % of control; (dose: 1200.0 mg/kg/injection, schedule: Q04DX003 (sc), vehicle: saline with Tween-80) 88 % of control.

As for `CN(C)P(=O)(Oc1ccccc1)N(C)C`, the T/C under setting [4] is 78 % of control.

As to `CCOC(=O)C(CC(C)C)NC(=O)C(Cc1ccc(N(CCCl)CCCl)cc1)NC(C)=O` (centres undefined), the T/C reads like this: (dose: 100.0 mg/kg/injection, schedule: Q01DX010 (sc), vehicle: saline with Tween-80) 46 % of control; (dose: 200.0 mg/kg/injection, schedule: Q01DX010 (sc), vehicle: saline with Tween-80) 2 % of control.

Take `CC1(C)CC2(C)OC2C2(C1)N=NC(=Nc1ccccc1)O2` (centres undefined): the T/C reads like this: (dose: 75.0 mg/kg/injection, schedule: Q04DX004 (sc), vehicle: saline with Tween-80) 16 % of control; under setting [1], 124 % of control; under setting [2], 89 % of control; under setting [3], 69 % of control.

Take `c1ccc2c(NCCCCCCNc3c4ccccc4nc4ccccc34)c3ccccc3nc2c1`: the T/C runs as follows: (dose: 5.0 mg/kg/injection, schedule: Q01DX010 (sc), vehicle: Klucel (hydroxypropylcellulose) (HPC)) 154 % of control; (dose: 10.0 mg/kg/injection, schedule: Q01DX010 (sc), vehicle: Klucel (hydroxypropylcellulose) (HPC)) 88 % of control.

Consider `CN(C)c1ccc2c(NCCCCCCNc3ccnc4cc(N(C)C)ccc34)ccnc2c1`, for which the T/C reads like this: (dose: 37.5 mg/kg/injection, schedule: Q04DX004 (sc), vehicle: distilled water + Tween-80 + alcohol) 92 % of control; (dose: 75.0 mg/kg/injection, schedule: Q04DX004 (sc), vehicle: distilled water + Tween-80 + alcohol) 60 % of control; (dose: 150.0 mg/kg/injection, schedule: Q04DX004 (sc), vehicle: distilled water + Tween-80 + alcohol) 54 % of control.

In the case of `COC1/C=C/C=C(/C)Cc2cc(O)c(Cl)c(c2)N(C)C(=O)CC(OC(=O)C(C)C)C2(C)OC2C(C)C2CC1(O)NC(=O)O2` (centres undefined), the T/C reads like this: (dose: 2.0 mg/kg/injection, schedule: Q04DX004 (sc), vehicle: saline + alcohol) 82 % of control; (dose: 4.0 mg/kg/injection, schedule: Q04DX004 (sc), vehicle: saline + alcohol) 98 % of control; (dose: 8.0 mg/kg/injection, schedule: Q04DX004 (sc), vehicle: saline + alcohol) 72 % of control.

As to `C/C(=N\NC(=S)N1CCN(c2ccccn2)CC1)c1ccccn1`, the T/C under setting [5] was 158 % of control.

For the compound `O=C(O)[C@H](Cc1ccccc1)N1C(=O)c2ccccc2C1=O`, the T/C was 180 % of control (dose: 150.0 mg/kg/injection, schedule: Q04DX004 (ip), vehicle: DMSO) and 97 % of control (dose: 300.0 mg/kg/injection, schedule: Q04DX004 (ip), vehicle: DMSO).
